The test system of the experiment is Hepatitis B virus. As to the kind of experiment: Antiviral activity against Hepatitis B virus infected in human Hep3B cells assessed as surface antigen production. In kind it is functional, organism-based, Hep 3B2.

Converted amounts (≈) assume the structure as drawn. Where a SMILES comes first, the peptide text is derived from it. [ ]: non-standard residue; d: D form. dLac(3-vinyl) = C=CC[C@@H](O)C(=O)O; dHica = CC(C)C[C@@H](O)C(=O)O; NMeV = CN[C@H](C(=O)O)C(C)C; NMeA = CN[C@@H](C)C(=O)O; βAla = NCCC(=O)O

Turning to `CC[C@H](C)[C@@H]1NC(=O)[C@@H]2CCCN2C(=O)[C@@H](CC(C)C)OC(=O)CCNC(=O)[C@H](C)N(C)C(=O)[C@H](C(C)C)N(C)C1=O` (cyclo(I[NMeV][NMeA][βAla][dHica]P)), the IC50 is 0.2 µg/mL (≈ 0.337 µM).
On to `C=CC[C@H]1OC(=O)CCNC(=O)[C@H](C)N(C)C(=O)[C@H](C(C)C)N(C)C(=O)[C@H]([C@@H](C)CC)NC(=O)[C@@H]2CCCN2C1=O` (cyclo(I[NMeV][NMeA][βAla][dLac(3-vinyl)]P)), for which the 50% inhibitory concentration (IC50) stood at 0.1 µg/mL (≈ 0.173 µM).
To `C=CC[C@H]1OC(=O)CCNC(=O)[C@H](C)N(C)C(=O)[C@H](C(C)C)NC(=O)[C@H]([C@@H](C)CC)NC(=O)[C@@H]2CCCN2C1=O` [DESMETHYLDESTRUXIN A] belongs 1.2 µg/mL (≈ 2.13 µM).
Consider `CC(C)C[C@H]1OC(=O)CCNC(=O)[C@H](C)N(C)C(=O)[C@H](C(C)C)NC(=O)[C@H](C(C)C)NC(=O)[C@@H]2CCCN2C1=O` [DESMETHYLDESTRUXIN B2] (cyclo([NMeA][βAla][dHica]PVV)), for which the IC50 amounted to 1.5 µg/mL (≈ 2.65 µM).
To `CC[C@H](C)[C@@H]1NC(=O)[C@@H]2CCCN2C(=O)[C@@H](CC(C)C)OC(=O)CCNC(=O)[C@H](C)N(C)C(=O)[C@H](C(C)C)NC1=O` [DESMETHYLDESTRUXIN B] (cyclo(IV[NMeA][βAla][dHica]P)) belongs 0.6 µg/mL (≈ 1.03 µM).
To `C=CC[C@H]1OC(=O)CCNC(=O)[C@H](C)N(C)C(=O)[C@H](C(C)C)N(C)C(=O)[C@H](C(C)C)NC(=O)[C@@H]2CCCN2C1=O` [DESTRUXIN A2] (cyclo([NMeA][βAla][dLac(3-vinyl)]PV[NMeV])) belongs 0.4 µg/mL (≈ 0.71 µM).
Consider `CC(C)C[C@H]1OC(=O)CCNC(=O)[C@H](C)N(C)C(=O)[C@H](C(C)C)N(C)C(=O)[C@H](C(C)C)NC(=O)[C@@H]2CCCN2C1=O` [DESTRUXIN B2] (cyclo([NMeA][βAla][dHica]PV[NMeV])), for which the IC50 is 0.3 µg/mL (≈ 0.517 µM).
